According to PMC5218480 (PLoS ONE, 2017):

Tested on: MV-4-11 cells
Experiment: Gene expression microarray analysis (Affymetrix PrimeView) and GSEA
Assay type: cell-based, human
Parameters: RFU PODN (11730768_x_at) / Fold change /veh PODN (11730768_x_at) / RFU LINC00158 (11744669_a_at) / Fold change /veh LINC00158 (11744669_a_at) / RFU DUSP10 (11751237_a_at) / Fold change /veh DUSP10 (11751237_a_at) / RFU ID3 (11757404_x_at) / Fold change /veh ID3 (11757404_x_at) / RFU PLEKHG5 (11737974_s_at) / Fold change /veh PLEKHG5 (11737974_s_at) / RFU LRRC4B (11730491_at) / Fold change /veh LRRC4B (11730491_at) / RFU GIMAP4 (11747438_a_at) / Fold change /veh GIMAP4 (11747438_a_at) / RFU KRT8 (11758183_x_at) / Fold change /veh KRT8 (11758183_x_at) / RFU CNN1 (11734310_a_at) / Fold change /veh CNN1 (11734310_a_at) / RFU VPS37D (11726825_at) / Fold change /veh VPS37D (11726825_at) / RFU C10orf10 (11716522_x_at) / Fold change /veh C10orf10 (11716522_x_at) / RFU KIR2DL2 /// KIR2DL4 /// KIR2DL5A /// KIR2DL5B /// KIR2DS1 /// KIR2DS2 /// KIR2DS3 /// KIR2DS4 /// KIR3DL3 /// KIR3DL3 /// KIR3DS1 (11738374_at) / Fold change /veh KIR2DL2 /// KIR2DL4 /// KIR2DL5A /// KIR2DL5B /// KIR2DS1 /// KIR2DS2 /// KIR2DS3 /// KIR2DS4 /// KIR3DL3 /// KIR3DL3 /// KIR3DS1 (11738374_at) / RFU C1QL1 (11718748_at) / Fold change /veh C1QL1 (11718748_at) / RFU TMPRSS4 (11747572_a_at) / Fold change /veh TMPRSS4 (11747572_a_at) / RFU HAMP (11756126_x_at) / Fold change /veh HAMP (11756126_x_at) / RFU RNFT2 (11725882_a_at) / Fold change /veh RNFT2 (11725882_a_at) / RFU NR4A2 (11747474_a_at) / Fold change /veh NR4A2 (11747474_a_at) / RFU ABCC12 (11746883_a_at) / Fold change /veh ABCC12 (11746883_a_at) / RFU TMEM136 (11760407_x_at) / Fold change /veh TMEM136 (11760407_x_at) / RFU CLDN22 /// WWC2 (11732394_at) / Fold change /veh CLDN22 /// WWC2 (11732394_at) / RFU HLA-DPB1 (11760878_x_at) / Fold change /veh HLA-DPB1 (11760878_x_at) / RFU SPINT1 (11716480_a_at) / Fold change /veh SPINT1 (11716480_a_at) / RFU GAP43 (11754022_s_at) / Fold change /veh GAP43 (11754022_s_at) / RFU A4GNT (11735810_at) / Fold change /veh A4GNT (11735810_at) / RFU PRB3 (11715151_x_at) / Fold change /veh PRB3 (11715151_x_at) / RFU TUBB4B (11761932_at) / Fold change /veh TUBB4B (11761932_at) / RFU CAPN14 (11732068_a_at) / Fold change /veh CAPN14 (11732068_a_at) / RFU TMCC2 (11721928_a_at) / Fold change /veh TMCC2 (11721928_a_at) / RFU IRGQ (11745062_a_at) / Fold change /veh IRGQ (11745062_a_at) / RFU FAM174B (11720279_a_at) / Fold change /veh FAM174B (11720279_a_at) / RFU TMPRSS4 (11748680_a_at) / Fold change /veh TMPRSS4 (11748680_a_at) / RFU FAM212B (11763350_a_at) / Fold change /veh FAM212B (11763350_a_at) / RFU PLEKHG5 (11743358_a_at) / Fold change /veh PLEKHG5 (11743358_a_at) / RFU ZSCAN30 (11745921_a_at) / Fold change /veh ZSCAN30 (11745921_a_at) / RFU CMKLR1 (11741424_a_at) / Fold change /veh CMKLR1 (11741424_a_at) / RFU LOC101060620 /// MAPK8IP1 (11723275_at) / Fold change /veh LOC101060620 /// MAPK8IP1 (11723275_at) / RFU SPTSSB (11747773_x_at) / Fold change /veh SPTSSB (11747773_x_at) / RFU PRSS12 (11739890_at) / Fold change /veh PRSS12 (11739890_at) / RFU BIN1 (11741810_x_at) / Fold change /veh BIN1 (11741810_x_at) / RFU WNT11 (11732464_a_at) / Fold change /veh WNT11 (11732464_a_at) / RFU C10orf10 (11716521_a_at) / Fold change /veh C10orf10 (11716521_a_at) / RFU C5orf56 (11738089_at) / Fold change /veh C5orf56 (11738089_at) / RFU CYB561 (11721691_x_at) / Fold change /veh CYB561 (11721691_x_at) / RFU ANKRD19P (11752326_a_at) / Fold change /veh ANKRD19P (11752326_a_at) / RFU OR2T12 /// OR2T33 /// OR2T8 (11738714_s_at) / Fold change /veh OR2T12 /// OR2T33 /// OR2T8 (11738714_s_at) / RFU VCAN (11748164_a_at) / Fold change /veh VCAN (11748164_a_at) / RFU JSRP1 (11732532_at) / Fold change /veh JSRP1 (11732532_at) / RFU KRTAP10-11 (11738290_x_at) / Fold change /veh KRTAP10-11 (11738290_x_at) / RFU MYO3A (11730013_a_at) / Fold change /veh MYO3A (11730013_a_at) / RFU EBF3 (11725865_a_at) / Fold change /veh EBF3 (11725865_a_at) / RFU CAMK2N1 (11719241_x_at) / Fold change /veh CAMK2N1 (11719241_x_at) / RFU C5orf56 (11738088_a_at) / Fold change /veh C5orf56 (11738088_a_at) / RFU OLFML3 (11715873_a_at) / Fold change /veh OLFML3 (11715873_a_at) / RFU LOC100653217 /// NTM (11731650_a_at) / Fold change /veh LOC100653217 /// NTM (11731650_a_at) / RFU MAPK11 (11762145_a_at) / Fold change /veh MAPK11 (11762145_a_at) / RFU FIZ1 (11724087_x_at) / Fold change /veh FIZ1 (11724087_x_at) / RFU OASL (11726364_x_at) / Fold change /veh OASL (11726364_x_at) / RFU SOX15 (11748057_x_at) / Fold change /veh SOX15 (11748057_x_at) / RFU CD79A (11719716_a_at) / Fold change /veh CD79A (11719716_a_at) / RFU HIST1H1D (11736915_at) / Fold change /veh HIST1H1D (11736915_at) / RFU CASKIN2 (11723855_a_at) / Fold change /veh CASKIN2 (11723855_a_at) / RFU LOC730098 (11760151_x_at) / Fold change /veh LOC730098 (11760151_x_at) / RFU OR4N2 (11742367_at) / Fold change /veh OR4N2 (11742367_at) / RFU PRRT2 (11749266_a_at) / Fold change /veh PRRT2 (11749266_a_at) / RFU SNX32 (11753110_a_at) / Fold change /veh SNX32 (11753110_a_at) / RFU CDHR5 (11726645_a_at) / Fold change /veh CDHR5 (11726645_a_at) / RFU RCAN1 (11760418_a_at) / Fold change /veh RCAN1 (11760418_a_at) / RFU FAM167A (11723789_a_at) / Fold change /veh FAM167A (11723789_a_at) / RFU FAM26E (11764081_at) / Fold change /veh FAM26E (11764081_at) / RFU ISYNA1 (11749810_s_at) / Fold change /veh ISYNA1 (11749810_s_at) / RFU ACY1 (11761880_at) / Fold change /veh ACY1 (11761880_at) / RFU 11764098_at / Fold change /veh 11764098_at / RFU SAMD14 (11745864_x_at) / Fold change /veh SAMD14 (11745864_x_at) / RFU NPB (11741838_a_at) / Fold change /veh NPB (11741838_a_at) / RFU TMPRSS6 (11731388_a_at) / Fold change /veh TMPRSS6 (11731388_a_at) / RFU KRTAP10-2 (11738614_at) / Fold change /veh KRTAP10-2 (11738614_at) / RFU ARHGAP8 /// PRR5-ARHGAP8 (11727945_x_at) / Fold change /veh ARHGAP8 /// PRR5-ARHGAP8 (11727945_x_at) / RFU KRTAP5-7 /// NADSYN1 (11734609_at) / Fold change /veh KRTAP5-7 /// NADSYN1 (11734609_at) / RFU RASL12 (11751679_a_at) / Fold change /veh RASL12 (11751679_a_at) / RFU CDKN2B (11736163_a_at) / Fold change /veh CDKN2B (11736163_a_at) / RFU PRF1 (11729649_at) / Fold change /veh PRF1 (11729649_at) / RFU, ZNF638 /// ZNF638-IT1 / Fold change vs veh, ZNF638 /// ZNF638-IT1 / RFU, PANK3 / Fold change vs veh, PANK3 / RFU, SH3YL1 / Fold change vs veh, SH3YL1 / RFU, ZEB2 / Fold change vs veh, ZEB2 / RFU, NRIP1 / Fold change vs veh, NRIP1 / RFU, PTTG1IP / Fold change vs veh, PTTG1IP / RFU, CAPN2 / Fold change vs veh, CAPN2 / RFU, MED14 / Fold change vs veh, MED14 / RFU, SNORA58 / Fold change vs veh, SNORA58 / RFU, C1orf63 / Fold change vs veh, C1orf63 / RFU, LRRFIP1 / Fold change vs veh, LRRFIP1 / RFU, NDUFAF7 / Fold change vs veh, NDUFAF7 / RFU, SLC12A2 / Fold change vs veh, SLC12A2 / RFU, IBTK / Fold change vs veh, IBTK / RFU, ESF1 / Fold change vs veh, ESF1 / Fold change vs veh, TMEM50B / RFU, TAOK1 / Fold change vs veh, TAOK1 / RFU, ACBD3 / Fold change vs veh, ACBD3 / RFU, TMA16 / Fold change vs veh, TMA16 / RFU, RWDD3 / Fold change vs veh, RWDD3 / RFU, BCAT1 / Fold change vs veh, BCAT1 / RFU, EDEM3 / Fold change vs veh, EDEM3 / RFU, TMEM33 / Fold change vs veh, TMEM33 / RFU, WDR75 / Fold change vs veh, WDR75 / RFU, AHCTF1 / Fold change vs veh, AHCTF1 / RFU, TFRC / Fold change vs veh, TFRC / RFU, ZDHHC17 / Fold change vs veh, ZDHHC17 / RFU, NOM1 / Fold change vs veh, NOM1 / RFU, ARL8B / Fold change vs veh, ARL8B / RFU, ZBTB11 / Fold change vs veh, ZBTB11 / RFU, TAMM41 / Fold change vs veh, TAMM41 / RFU, KIAA1704 /// LOC100996395 / Fold change vs veh, KIAA1704 /// LOC100996395 / RFU, ING1 / Fold change vs veh, ING1 / RFU, TRMT61B / Fold change vs veh, TRMT61B / RFU, FUBP3 / Fold change vs veh, FUBP3 / RFU, TP53 / Fold change vs veh, TP53 / RFU, TNKS2 / Fold change vs veh, TNKS2 / RFU, ZFP14 / Fold change vs veh, ZFP14 / RFU, ACTR2 / Fold change vs veh, ACTR2 / RFU, PPP3R1 / Fold change vs veh, PPP3R1 / RFU, PIK3R1 / Fold change vs veh, PIK3R1 / RFU, HNRNPA1 / Fold change vs veh, HNRNPA1 / RFU, RNF170 / Fold change vs veh, RNF170 / RFU, ZNF28 / Fold change vs veh, ZNF28 / RFU, RNGTT / Fold change vs veh, RNGTT / RFU, OGT / Fold change vs veh, OGT / RFU, BRD1 / Fold change vs veh, BRD1 / RFU, MARS / Fold change vs veh, MARS / RFU, ZNF655 / Fold change vs veh, ZNF655 / RFU, FAHD1 / Fold change vs veh, FAHD1 / RFU, BDP1 / Fold change vs veh, BDP1 / RFU, LRRCC1 / Fold change vs veh, LRRCC1 / RFU, ARID1A / Fold change vs veh, ARID1A / RFU, ZNF146 / Fold change vs veh, ZNF146 / RFU, ZNF330 / Fold change vs veh, ZNF330 / RFU, GPN3 / Fold change vs veh, GPN3 / RFU, C9orf123 / Fold change vs veh, C9orf123 / RFU, N4BP2L2 / Fold change vs veh, N4BP2L2 / RFU, ARFIP1 / Fold change vs veh, ARFIP1 / RFU, FAM179B / Fold change vs veh, FAM179B / RFU, BCL10 / Fold change vs veh, BCL10 / RFU, UHRF1BP1L / Fold change vs veh, UHRF1BP1L / RFU, BET1 / Fold change vs veh, BET1 / RFU, CNOT2 / Fold change vs veh, CNOT2 / RFU, ZNF268 / Fold change vs veh, ZNF268 / Fold change vs veh, ZNF507 / RFU, DGCR2 / Fold change vs veh, DGCR2 / RFU, WDSUB1 / Fold change vs veh, WDSUB1 / Fold change vs veh, HSP90B1 /// MIR3652 / RFU, ADSS / Fold change vs veh, ADSS / RFU, GK / Fold change vs veh, GK / RFU, ZNF148 / Fold change vs veh, ZNF148 / RFU, TAF9 / Fold change vs veh, TAF9 / RFU, SLC1A5 / Fold change vs veh, SLC1A5 / RFU, SLMO2 / Fold change vs veh, SLMO2 / RFU, ABCC4 / Fold change vs veh, ABCC4 / RFU, LOC101060439 /// RAP1B / Fold change vs veh, LOC101060439 /// RAP1B / RFU, RFX7 / Fold change vs veh, RFX7 / RFU, GTPBP10 / Fold change vs veh, GTPBP10 / RFU, CNEP1R1 / Fold change vs veh, CNEP1R1 / RFU, BIVM-ERCC5 /// ERCC5 / Fold change vs veh, BIVM-ERCC5 /// ERCC5 / RFU, ILF3 / Fold change vs veh, ILF3 / RFU 11762660_at / Fold change /veh 11762660_at / RFU VCAN (11757783_s_at) / Fold change /veh VCAN (11757783_s_at) / RFU DDX43 (11728927_at) / Fold change /veh DDX43 (11728927_at) / RFU KRT8 (11758188_x_at) / Fold change /veh KRT8 (11758188_x_at) / RFU NKD1 (11759106_at) / Fold change /veh NKD1 (11759106_at) / RFU SRD5A1 (11742802_a_at) / Fold change /veh SRD5A1 (11742802_a_at) / RFU TPSAB1 /// TPSB2 (11721975_s_at) / Fold change /veh TPSAB1 /// TPSB2 (11721975_s_at) / RFU GSTM3 (11746129_a_at) / Fold change /veh GSTM3 (11746129_a_at) / RFU IL23R (11737362_x_at) / Fold change /veh IL23R (11737362_x_at) / RFU TMEM51 (11727254_a_at) / Fold change /veh TMEM51 (11727254_a_at) / RFU PIWIL2 (11732686_x_at) / Fold change /veh PIWIL2 (11732686_x_at) / RFU ORM1 (11744905_x_at) / Fold change /veh ORM1 (11744905_x_at) / RFU CCDC152 (11743942_at) / Fold change /veh CCDC152 (11743942_at) / RFU ECM1 (11717891_a_at) / Fold change /veh ECM1 (11717891_a_at) / RFU IL23R (11748794_a_at) / Fold change /veh IL23R (11748794_a_at) / RFU TNFAIP8L3 (11732012_x_at) / Fold change /veh TNFAIP8L3 (11732012_x_at) / RFU MBOAT4 (11741988_at) / Fold change /veh MBOAT4 (11741988_at) / RFU 11764193_at / Fold change /veh 11764193_at / RFU TMEM53 (11763286_at) / Fold change /veh TMEM53 (11763286_at) / RFU MAGEB2 (11727129_at) / Fold change /veh MAGEB2 (11727129_at) / RFU TMEM200A (11744735_a_at) / Fold change /veh TMEM200A (11744735_a_at) / RFU CCDC152 (11751479_a_at) / Fold change /veh CCDC152 (11751479_a_at) / RFU FAM211A (11726209_a_at) / Fold change /veh FAM211A (11726209_a_at) / RFU RGS16 (11746705_a_at) / Fold change /veh RGS16 (11746705_a_at) / RFU VCAN (11755009_s_at) / Fold change /veh VCAN (11755009_s_at) / RFU RHOB (11743442_s_at) / Fold change /veh RHOB (11743442_s_at) / RFU RGS16 (11720943_a_at) / Fold change /veh RGS16 (11720943_a_at) / RFU RGS16 (11720944_at) / Fold change /veh RGS16 (11720944_at) / RFU, VPS4B / Fold change vs veh, VPS4B / RFU, CREB1 / Fold change vs veh, CREB1 / RFU, DNAJC13 / Fold change vs veh, DNAJC13 / RFU, GNAQ / Fold change vs veh, GNAQ / RFU, CDK5R1 / Fold change vs veh, CDK5R1 / RFU, ZRANB3 / Fold change vs veh, ZRANB3 / RFU, CUL4A / Fold change vs veh, CUL4A / RFU, CCNY / Fold change vs veh, CCNY / RFU, UFL1 / Fold change vs veh, UFL1 / RFU, COG3 / Fold change vs veh, COG3 / RFU, DIAPH2 / Fold change vs veh, DIAPH2 / RFU, SKA2 / Fold change vs veh, SKA2 / RFU, AFF3 / Fold change vs veh, AFF3 / RFU, LMF1 / Fold change vs veh, LMF1 / RFU, IPO11 / Fold change vs veh, IPO11 / RFU, DFFB / Fold change vs veh, DFFB / RFU, FOXP1 / Fold change vs veh, FOXP1 / RFU, CARD8 / Fold change vs veh, CARD8 / RFU, STRN3 / Fold change vs veh, STRN3 / RFU, ADK / Fold change vs veh, ADK / RFU, RASSF2 / Fold change vs veh, RASSF2 / RFU, WIPF1 / Fold change vs veh, WIPF1 / RFU, LARP1B / Fold change vs veh, LARP1B / RFU, RASA1 / Fold change vs veh, RASA1 / RFU, RB1 / Fold change vs veh, RB1 / RFU, PPFIA1 / Fold change vs veh, PPFIA1 / RFU, MAT2A / Fold change vs veh, MAT2A / RFU, CCT5 / Fold change vs veh, CCT5 / RFU, WDR92 / Fold change vs veh, WDR92 / RFU, CUX1 / Fold change vs veh, CUX1 / RFU, TTC7A / Fold change vs veh, TTC7A / RFU, TMEM135 / Fold change vs veh, TMEM135 / RFU, DEPTOR / Fold change vs veh, DEPTOR / RFU, CPM / Fold change vs veh, CPM / RFU, DNAJB6 / Fold change vs veh, DNAJB6 / RFU, CACNA2D3 / Fold change vs veh, CACNA2D3 / RFU, DTX4 / Fold change vs veh, DTX4 / RFU, TFCP2 / Fold change vs veh, TFCP2 / RFU, GMCL1 /// GMCL1P1 / Fold change vs veh, GMCL1 /// GMCL1P1 / RFU, AEBP2 / Fold change vs veh, AEBP2 / RFU, SNHG1 /// SNORD22 /// SNORD25 /// SNORD26 /// SNORD27 /// SNORD28 /// SNORD29 /// SNORD31 / Fold change vs veh, SNHG1 /// SNORD22 /// SNORD25 /// SNORD26 /// SNORD27 /// SNORD28 /// SNORD29 /// SNORD31 / Fold change (Aza/veh), C12orf56 (ProbeSet 11735607_a_at) / Fold change (ACY-1035/veh), C12orf56 (ProbeSet 11735607_a_at) / Fold change (Aza/veh), FGFR1OP (ProbeSet 11751329_s_at) / Fold change (ACY-1035/veh), FGFR1OP (ProbeSet 11751329_s_at) / Fold change (Aza/veh), VPS36 (ProbeSet 11739960_a_at) / Fold change (ACY-1035/veh), VPS36 (ProbeSet 11739960_a_at) / RFU SYPL1 (11715823_x_at) / Fold change /veh SYPL1 (11715823_x_at) / RFU IGFBP7 (11715501_s_at) / Fold change /veh IGFBP7 (11715501_s_at) / RFU REEP3 (11722064_at) / Fold change /veh REEP3 (11722064_at) / RFU IGLL1 (11728026_x_at) / Fold change /veh IGLL1 (11728026_x_at): dose or concentration left out as unconfirmed
Conditions: MV-4-11 cells, 48 hours

In the case of `Nc1ncn([C@@H]2O[C@H](CO)[C@@H](O)[C@H]2O)c(=O)n1` [azacitidine], the “Fold change /veh PRSS12 (11739890_at)” value is reported as 0.94.
